In paper PMC5876388 (Scientific Reports, 2018):
pIC50: −log10 of the molar value.

Key:
[1] = biological target: T1, nicastrin (Homo sapiens, UniProt Q92542); experiment: Western blot in HPB-ALL cells; assay type: cell-based
T1 construct: endogenous in cells; host or cells: HPB-ALL
Procedure: (A) Schematic representation of γ-secretase complex. γ-Secretase is composed of four membrane proteins: presenilin1 (PS1), nicastrin (NCT), anterior pharynx defective 1 (APH-1) and presenilin enhancer 2 (PEN-2). […] (E,F) Relative protein levels of nicastrin mature and immature analyzed by densitometry. […] P values were analyzed by Student’s t test.
Media also contained different concentrations of compound. Cells were incubated at 37 °C for 72 h (12 h, when treatment with MG132). After incubation, cells were centrifuged and collected, and then washed with 500 μL of PBS twice. To prepare cell lysate and confirm protein expression levels, the same method as described above was used.

[2] = test system: Notch signaling (LS174T Notch cells); experiment: Notch signaling transcriptional activity assay (luciferase reporter, T-REx system); assay type: cell-based; settings: Homo sapiens, LS174T, 12 h, read-out: IC50 of Notch signal inhibitory activity (luciferase)
Source text: We constructed a cell-based reporter assay with the T-Rex system to evaluate Notch signaling inhibitory activity. Without doxycycline (Dox), the tetracycline repressor (TetR) inhibits the expression of N-terminally FLAG-tagged mouse Notch1(1704–2531), which is 40 aa longer than NICD at the N-terminus. In the presence of Dox, Dox binds to the TetR to release the inhibition of expression of Notch1(1704–2531). Cleavage of Notch1(1704–2531) by γ-secretase generates NICD, which then translocates to the nucleus and forms a heterotrimer with RBP-J driving luciferase transcription (Fig. 2). This assay cells (LS174T Notch cells) was stably incorporated with pGL4.20 luciferase plasmid which has 12 × RBP-J binding site (12 copies of […])-β-globin promoter. Cell viability was measured using a fluorometric microculture cytotoxicity assay. […] The composition of the G. speciosa MeOH extract was partitioned successively with hexane, EtOAc, nBuOH, and water.
Figure 2 The T-REx assay system. Without Dox, expression of Notch1(1704–2531) is suppressed by TetR. The addition of Dox inactivates TetR to initiate expression of Notch1(1704–2531), which is then cleaved by endogenous γ-secretase to form NICD. NICD then translocates to the nucleus and forms a heterotrimer with RBP-J and MAML that binds to a 12× RBP-J binding site to drive luciferase expression. Luciferase activity was detected as Notch signaling pathway activity. Dox: doxycycline, TetR: tetracycline repressor, Luc.: luciferase.
Assay cells (LS174T Notch cells: 2 × 10^4 cells/well) were incubated in a 96-well white plate at 37 °C for 12 h. After incubation, 50 ng/mL Dox was added to each well to induce expression of exogenous Notch1(1704–2531) protein. After incubation at 37 °C for 12 h, the medium was changed to Dox-free medium containing individual samples. Luciferase activity was measured after treatment at 37 °C for 12 h. Cell viability was evaluated by the FMCA method at the same time. These assays were performed in 0.1% DMSO (n = 3). Error bars represent SD.
In a 96-well white plate, Cells (LS174T Notch cells; 2 × 10^4 cells per well) were cultured at 37 °C for 12 h. To express Notch1(1704–2531) protein in the cells, doxycycline (50 ng/mL) was added to each well, and cells were cultured at 37 °C for 12 h. Medium was changed to doxycycline-free medium containing each sample, then cells were incubated with at 37 °C for 12 h. A microplate luminometer (Thermo Fisher Scientific Inc., Waltham, USA) and the Bright-Glo™ Luciferase Assay System (Promega Co., Madison, USA) were used for measurement of Luciferase activity. Fluorometric Microculture Cytotoxicity Assay (FMCA) was used for measurement of cell viability of the sample-treated cells. After incubation of assay cells (2×10^4 cells per well) in a 96-well black plate at 37 °C for 24 h, samples addition was performed at the same time as the luciferase assay. The assay cells were cultures at 37 °C for 12 h. A fluorescence plate reader (Thermo Fisher Scientific Inc., Waltham, USA) was used for determination of cell viability by FMCA.

[3] = test system: HEK293 cells; experiment: Cytotoxicity test, FMCA; assay type: cell-based, human; settings: 72 h
Procedure: (§1) The medium was exchanged to fresh medium with different concentrations of compound and cells were incubated for 72 h.

[4] = Cytotoxicity test, FMCA; assay type: cell-based, human; settings: human, HEK293 cells, FMCA, read-out: IC50 cytotoxicity 293
Procedure: as §1

T1 sequence (Q92542 34-709): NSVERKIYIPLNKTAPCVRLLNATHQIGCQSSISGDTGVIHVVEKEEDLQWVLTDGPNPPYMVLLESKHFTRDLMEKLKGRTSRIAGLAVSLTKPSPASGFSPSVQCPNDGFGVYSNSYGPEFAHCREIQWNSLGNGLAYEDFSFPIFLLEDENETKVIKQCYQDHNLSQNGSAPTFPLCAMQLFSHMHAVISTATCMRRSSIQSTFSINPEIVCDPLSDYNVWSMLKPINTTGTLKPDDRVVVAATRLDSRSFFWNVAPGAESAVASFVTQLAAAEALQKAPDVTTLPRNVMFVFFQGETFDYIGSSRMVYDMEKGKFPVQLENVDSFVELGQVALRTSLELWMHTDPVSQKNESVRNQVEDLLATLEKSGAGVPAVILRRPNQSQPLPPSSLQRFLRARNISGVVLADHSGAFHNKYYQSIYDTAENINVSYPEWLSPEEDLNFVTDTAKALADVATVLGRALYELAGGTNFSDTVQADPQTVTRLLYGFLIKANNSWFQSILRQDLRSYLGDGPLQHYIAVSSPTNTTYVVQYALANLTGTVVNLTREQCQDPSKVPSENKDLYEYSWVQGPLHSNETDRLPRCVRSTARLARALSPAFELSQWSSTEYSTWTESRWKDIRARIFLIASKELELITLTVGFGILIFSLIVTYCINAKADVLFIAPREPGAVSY

nicastrin levels ([1]; 72 h, Western blot): reduced | decrease in nicastrin expression with proteasome inhibitor MG132 ([1]; cowanin 15 μM + MG132 5 μM, 12 h): not so marked | pIC50 [2]: 5.62
SMILES: COc1c(O)cc2oc3cc(O)c(CC=C(C)C)c(O)c3c(=O)c2c1C/C=C(\C)CCC=C(C)C [Compound 2, cowanin]
immature versus mature nicastrin ([1]; 15 μM, 12 h, densitometry): decreased immature nicastrin stronger than mature nicastrin | viability of normal human embryonic kidney 293 cells ([3]; 10 μM): not affected | cytotoxicity on 293 cells ([3]; 20 μM): cytotoxicity was detected | IC50 at 72 h [4]: 15.1 µM
